One data set has as its target T1, rat PTP1 (Rattus norvegicus, UniProt P20417).
T1 construct: a C-terminal truncation of rat PTP1 (amino acid residues 1-322); GST (N, cleaved yes); made in house; host or cells: E. coli strain TG-1 (pGEX-2T)
T1 sequence (P20417 1-322): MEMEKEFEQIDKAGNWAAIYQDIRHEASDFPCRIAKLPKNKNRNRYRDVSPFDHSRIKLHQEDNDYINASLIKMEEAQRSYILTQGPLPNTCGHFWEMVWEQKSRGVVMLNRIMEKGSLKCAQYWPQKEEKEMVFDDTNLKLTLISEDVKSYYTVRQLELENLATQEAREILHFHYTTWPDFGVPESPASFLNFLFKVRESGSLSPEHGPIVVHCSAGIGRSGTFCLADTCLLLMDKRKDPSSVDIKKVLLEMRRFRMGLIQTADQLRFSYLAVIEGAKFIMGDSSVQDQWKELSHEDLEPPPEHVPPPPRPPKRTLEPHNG
In words: PTP1 assay, pNPP hydrolysis (rate of change in A405). Type of data set: biochemical. Conditions: for Ki: calculated from IC50-values obtained from a dose-response curve using the inhibition assay; for inhibition at 1 µM: Conc 1 uM; for inhibition at 1 µM / inhibition at 10 µM / inhibition at 100 µM: pNPP hydrolysis, Table 2, read-out: PTP1 Inhib PTP1N. % Inhib; for inhibition at 10 µM: Conc 10 uM; for inhibition at 100 µM: Conc 100 uM. Summed up:
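Thrombin-cleaved rat PTP1 residues 1-322 (35 ng/ml) with 1 mM pNPP in 50 mM Hepes pH 7.2, NaCl, EDTA, DTT, BSA at room temperature. A405 rate followed 60 min. Compounds added as 10 mM solutions; percent inhibition relative to plate DMSO controls, 1 mM orthovanadate as full-inhibition control.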

In the next data set the target is T2, human PTP1B (Homo sapiens, UniProt P18031).
T2 construct: human PTP1B (amino acid residues 1-321); made in house; host or cells: E. coli BL21(DE3)
T2 sequence (P18031 1-321): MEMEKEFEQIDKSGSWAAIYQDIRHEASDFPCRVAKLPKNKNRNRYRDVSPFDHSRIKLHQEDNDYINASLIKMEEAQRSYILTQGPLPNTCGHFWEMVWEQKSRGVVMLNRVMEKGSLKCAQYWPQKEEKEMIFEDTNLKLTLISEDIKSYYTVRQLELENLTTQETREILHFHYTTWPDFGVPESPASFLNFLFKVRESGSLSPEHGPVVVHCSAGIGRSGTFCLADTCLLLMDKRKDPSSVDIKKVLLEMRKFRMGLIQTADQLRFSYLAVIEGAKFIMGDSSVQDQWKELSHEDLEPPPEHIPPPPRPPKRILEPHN
In words: PTP1B assay, pNPP hydrolysis, assayed exactly as for PTP1. Conditions: Table 2, read-out: PTP1B Inhib PTP1B. % Inhib; for inhibition at 1 µM: Conc 1 uM; for inhibition at 10 µM: Conc 10 uM; for inhibition at 100 µM: Conc 100 uM. Type of data set: biochemical. Summed up: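 Untagged human PTP1B (residues 1-321) expressed in E. coli; assayed at RT in 50 mM Hepes pH 7.2, 50 mM NaCl, 1 mM EDTA, 1 mM DTT, 1 mg/ml BSA with 1 mM pNPP. A405 rate followed 60 min; percent inhibition versus DMSO controls, 1 mM orthovanadate as full-inhibition control.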

For orientation: melting point means the temperature, or range, at which the solid turns liquid. `CC(C)(C)OC(=O)N[C@@H](Cc1ccccc1)C(=O)N[C@H](CO)Cc1ccc(OCC(=O)O)c(C(=O)O)c1` [Example 138, 5-[(2S)-2-({(2S)-2-[(tert-butoxycarbonyl)amino]-3-phenylpropanoyl}amino)-3-hydroxypropyl]-2-(carboxymethoxy)benzoic Acid]: the melting point was 168.8 to 172.3 °C.
For orientation: Ki means a dissociation constant, usually derived from enzyme kinetics or from competition with a known ligand. `O=C(O)COc1ccc(C[C@H](NC(=O)c2ccoc2)C(=O)NCCCCc2ccccc2)cc1-c1nn[nH]n1` [Example 147, 2-[4-{(2S)-2-(3-furoylamino)-3-oxo-3-[(4-phenylbutyl)amino]-propyl}-2-(2H-1,2,3,4-tetrazol-5-yl)phenoxy]acetic Acid]: the melting point was in the range of 230 to 233 °C. For the same compound, at rat PTP1, the Ki was 46 µM.
Consider `CCCCCNC(=O)C(Cc1ccc(OC(COO)COO)cc1)NC(=O)C(Cc1ccccc1)NC(=O)OC(C)(C)C` (centres unmarked), for which, on rat PTP1, the inhibition at 1 µM was 9%, the inhibition at 10 µM came out at 42% and the inhibition at 100 µM is 88%. Further, on human PTP1B, the inhibition at 1 µM came to 7%, the inhibition at 10 µM stood at 48% and the inhibition at 100 µM was determined as 91%.
In the case of `CCCCCNC(=O)[C@H](Cc1ccc(OCC(=O)O)c(C(=O)O)c1)NC(=O)[C@@H](Cc1ccccc1)N1CCCC1=O` [Example 143, 2-(carboxymethoxy)-5-[(2S)-3-oxo-2-{[(2R)-2-(2-oxo-1-pyrrolidinyl)-3-phenylpropanoyl]amino}-3-(pentylamino)propyl]benzoic Acid], the melting point lay in the range of 96 to 97 °C.
As to `CCCCCNC(=O)[C@@H](Cc1ccc(OCC(=O)O)c(C(=O)O)c1)NC(=O)Cc1ccccc1OC` [Example 153, 2-(carboxymethoxy)-5-[(2R)-2-{[2-(2-methoxyphenyl)acetyl]amino}-3-oxo-3-(pentylamino)propyl]benzoic Acid], the melting point was 146 to 148 °C. The Ki at rat PTP1 was 30 µM.
For `CCCCCNC(=O)C(Cc1ccc(OC(COO)COO)cc1)NC(=O)C(Cc1ccccc1)NC(=O)CCC(=O)O` (centres unmarked), on rat PTP1, the inhibition at 1 µM is 37%, the inhibition at 10 µM was found to be 84% and the inhibition at 100 µM was found to be 97%. Further, on human PTP1B, the inhibition at 1 µM amounted to 45%, the inhibition at 10 µM came to 87% and the inhibition at 100 µM was 99%.
As to `CCCCCNC(=O)C(Cc1ccc(OC(COO)COO)cc1)NC(=O)C(C)NC(=O)OC(C)(C)C` (centres unmarked), on rat PTP1, the inhibition at 1 µM is 0%, the inhibition at 10 µM came to 22% and the inhibition at 100 µM was found to be 76%. In addition, on human PTP1B, the inhibition at 1 µM came to 7%, the inhibition at 10 µM worked out at 36% and the inhibition at 100 µM is 83%.
The compound `O=C(O)COc1ccc(C[C@H](NC(=O)c2ccccc2)C(=O)NCCCCc2ccccc2)cc1-c1nn[nH]n1` [Example 146, 2-[4-{(2S)-2-(benzoylamino)-3-oxo-3-[(4-phenylbutyl)amino]-propyl}-2-(2H-1,2,3,4-tetrazol-5-yl)phenoxy]acetic Acid] gave a melting point of 223 to 225 °C. Moreover, at rat PTP1, the inhibitory constant (Ki) is 20 µM.
Consider `CCCCCNC(=O)C(Cc1ccc(OC(COO)C(=O)O)cc1)NC(=O)NC(Cc1ccc(OCc2ccccc2)cc1)C(=O)O` (centres unmarked), for which, at rat PTP1, the inhibition at 1 µM was 8%, the inhibition at 10 µM amounted to 55% and the inhibition at 100 µM was 96%. At human PTP1B, the inhibition at 1 µM is 14%, the inhibition at 10 µM was 63% and the inhibition at 100 µM amounted to 97%.

Source of the values: patent publication US6410585B1, “Inhibitors of protein tyrosine phosphatase” (priority 1997, dated 2002).
